These results are taken from patent publication US5840893A, “Compounds for treating infectious diseases” (priority 1996, dated 1998).

The nature of data set [1]: Toxicity study: median lethal dose in mice, i.p. Type of data set: in vivo. The following applies: mouse, in vivo, ip. Here is the method:
(§1) The doses of compounds of the invention found to be lethal to 50% of the mice (LD50) were determined by intraperitoneal injection of groups of five animals with increasing doses of each compound. CNI-0294 was administered from 0, 2, 10, 20, 40, 80, 160, 320, 640, 1280 mg/kg in 0.5 ml of water/HCl; CNI-1594 at 0, 2.4, 5, 10, 20, 40, 80 mg/kg in 0.5 ml of water/HCl; CNI-1794 at 0, 20, 50, 80 mg/kg in 0.5 ml of water/HCl; and CNI-1894 at 0, 10, 20, 40, 80, 240, 480, 960 mg/kg in water/HCl. […] The percentage of animals in each group which died were utilized to calculate the LD50 by non-linear curve fitting with the Enzfit software (Elsevier Bioscience; Cambridge, UK) programmed with the Chou equation (Chou 1976, J Theor Biol 39:253-276)).
(§2) The compounds (FIGS. 4A-E), were screened for toxicity via a modified LD50 assay procedure as described above in an outbred strain of mice.

A further data set concerns mice. Kind of data set: Toxicity study: median lethal dose in mice, i.p. The format is in vivo. Here is the method:
as §1, §2

Another data set can be described thus: in vitro. The format is in vitro ADME, mouse (ND4 Swiss Webster). Here is the method:
Several female ND4 Swiss Webster mice were euthanized by carbon dioxide inhalation and the livers excised and rinsed with ice cold phosphate buffered saline (pH 7.4). The livers were minced, gently homogenized in 50 mM phosphate buffer (pH 7.4) with a Dounce homogenizer, and centrifuged at 9600×g for 20 min. The post-mitochondrial supernatant was kept, glycerol added to 20%, and frozen at -70° C. in 1.0 ml aliquots until used. For each incubation, 1.0 ml of a 1.0 mg/ml drug solution was added to 3.0 ml of 50 mM phosphate buffer (pH 7.4), 1.0 ml of 2 mg/ml NADPH in 50 mM phosphate (pH 7.4), and 1.0 ml of the post-mitochondrial supernatant. Five hundred μl of each incubate was then immediately transferred to an ice-cold tube to provide the zero-time sample, and addition 500 μl aliquots removed to ice-cold tubes at 8, 15, 30, and 60 min. The samples were then extracted, and analyzed by HPLC as described in section 7.1. Control incubations were also performed where drug or post-mitochondrial supernatant was omitted. […] Peaks in the CNI compound incubations which increased over time, and were not present in control samples lacking the enzyme preparation were treated as putative metabolites.

Data set [2] deals with Plasmodium falciparum clone D10. Kind of data set: Antimalarial activity in vitro, hypoxanthine incorporation, clone D10. Type of data set: cell-based. The following applies: D10, read-out: CNI-0294 IC50. Here is the method: (§3) The antimalarial activity of the compounds was determined essentially as described in Desjardins et al. supra. Fifty Al of various concentrations of a compound of the invention, chloroquine, or pyrimethamine were added to the wells of microtiter plates, followed by 200 Al of ring-stage, synchronized, P. falciparum-infected erythrocytes (final hematocrit=1.5%, final parasitemia=1-5%). The plates were incubated for 24 hr in a candle jar kept at 37° C., and then 25 μl of [^3 H]-hypoxanthine (Amersham, Arlington Heights, Ill.; 2.5 μl Ci/well) was added. The plates were then incubated for a further 24 hr, before harvesting onto Unifilter-96 GF/C filter-microplates (Packard; Meriden, Conn.). Twenty-five μl of Microscint scintillation fluid (Packard) was added to each well of the filter-microplate, which was subsequently counted in a Top-count microplate scintillation counter (Packard). The percent of [^3 H] -hypoxanthine uptake relative to control infect-erythrocytes was used to determine the IC50 value for the compounds by non-linear regression for LD50 determination.

Data set [3] has as its system Plasmodium falciparum clone Dd2. Kind of data set: Antimalarial activity in vitro, hypoxanthine incorporation, clone Dd2. The following applies: Plasmodium falciparum. The format is cell-based. Here is the method: as §3
The Dd2 clone of P. falciparum, which was both chloroquine and pyrimethamine resistant, was utilized to compare the antimalarial activity of the remaining CNI compounds (Table VIII).

Data set [4] relates to Plasmodium falciparum clone FCR-3. Description: Antimalarial activity in vitro, hypoxanthine incorporation, clone FCR-3. Type of data set: cell-based. The following applies: FCR3, read-out: CNI-0294 IC50. Here is the method:
as §3

In data set [5] the test system is Plasmodium falciparum clone HB3. Description: Antimalarial activity in vitro, hypoxanthine incorporation, clone HB3. Type of data set: cell-based. The following applies: HB3, read-out: CNI-0294 IC50. Here is the method:
as §3

Data set [6] deals with Plasmodium falciparum clone W2mef. Kind of data set: Antimalarial activity in vitro, hypoxanthine incorporation, clone W2mef. The format is cell-based. The following applies: read-out: CNI-0294 IC50. Here is the method:
as §3

The test system of the next data set is Plasmodium falciparum. Description: Antimalarial activity in vitro, hypoxanthine incorporation, series of clones. Type of data set: cell-based. Here is the method:
as §3

A further data set relates to Plasmodium berghei. Description: Four day suppression test in Plasmodium berghei infected mice. The format is in vivo, Plasmodium berghei NYU-2 in female ND4 Swiss Webster mice. Here is the method: FIG. 9. The activity of CNI-0294 against Plasmodium berghei infected mice. Female ND4 Swiss Webster mice were infected with infected erythrocytes and then treated once daily, for four days, with 50 mg/kg CNI-0294, or with distilled water. Six hours after the last dose, thin blood smears were made from each of the animals and the parasitemia was determined. The bars represent the median parasitemia (n=4 for controls and n=5 for treated).
The antimalarial activity of CNI-0294 in vivo was assessed by infecting female ND4 Swiss Webster mice with 100 μl of Plasmodium berghei NYU-2 infected mouse erythrocytes (50% parasitemia) by intraperitoneal injection. The animals were subsequently injected intraperitoneally once per day on days 1-4 of the infection with 0.5 ml water or 0.5 ml of 50 mg/kg CNI-0294 in water. Four hours after the final injection, small blood samples were taken from the tail, and thin smears stained with Dif-Quick (Baxter, Miami, Fla.). The parasitemia of control and treated animals was enumerated by inspection of at least 1000 erythrocytes in each animal.

The conditions of data set [7]: mouse, in vivo.
Experimental: (§4) Standard addition curves for each test compound were constructed by adding increased amounts of drug to mouse or human A^+ plasma (Long Island Blood Services; Melville, N.Y.). […] The eluted sample was reduced to dryness in a rotary evaporator and resuspended in 1.0 ml Buffer A.
(§5) Female ND4 Swiss Webster mice (21-24 g) were obtained from Harlan Sprague Dawley (Indianapolis, Ind.) and randomly placed in groups of five in cages with free access to food and water. […] The other CNI compounds were administered intraperitoneally or by oral gavage as a solution in water titrated with sufficient HCl to dissolve the drug. At various time points, ranging from 5 min to 4 days, a single group of animals was euthanized by carbon dioxide inhalation and bled by cardiac puncture using heparin as an anticoagulant. The blood from the five mice in the group was pooled and centrifuged at 14000×g for 10 min. The volume of plasma was measured, and equal volume of Buffer A added, and the mixture extracted and analyzed as described above, except that the dried eluates were resuspended in 200 μl Buffer A and 100 μl was injected onto the high performance liquid chromatography (HPLC) system.
(§6) The area under the plasma concentration-time curve (AUC) was determined, and bioavailability was measured as AUCoral /AUCi.p.. […] The volume of distribution (VD) was calculated as dose/B, and the total clearance rate (Cltot) calculated as β*VD. Cmax and tmax are the maximal plasma concentration and time of this measurement, respectively.
A further data set in a line: in vivo. The following applies: mouse, plasma, 50 mg/kg.
The next data set concerns nuclear localization. The following applies: literature; cited from earlier work.
The test system of data set [8] is importation of HIV-1 into the nucleus. The following applies: 0.1M peptide in medium; aphidicolin-arrested CD4+ MT4 cells; cited from earlier work.

Values joined by “and” are separate entries in the source; they are usually repeats but may differ in a detail not shown here. Equal entries are not always repeated. “Also recorded” adds a separate entry of the source. Where two headings read alike, the source gives them in different places.

Experimental for in vivo: as §4, §5, §6

For the molecule `CC(=O)c1cc(Nc2cc(C)[n+](C)c(N)n2)cc(C(C)=O)c1.[Cl-]` [CNI-0294, 2-amino-4-(3,5-diacetylphenyl)amino-1,6-dimethylpyrimidinium chloride], the LD50 (as a rule, the dose at which mortality reaches 50%) in data set [1] worked out at 588 ± 65.8 mg/kg. Besides, in the data set with mice, the “signs and time of toxic reactions / death” value was “no overt signs of toxicity detectable at doses approaching the LD50”; the tolerability entry was “very well tolerated; also recorded: well tolerated”. For the same molecule, the number of metabolites entry in the data set “in vitro” (mouse liver post-mitochondrial supernatant, NADPH) is “three minor and one major metabolite”. Moreover, the metabolised at 1 h in the data set “in vitro” (mouse, liver post-mitochondrial supernatant, 60 min incubation, by peak area, read-out: drug altered (metabolic conversion)) worked out at 43.5%. The IC50 in [2] came to 4 ± 0.41 µM. In addition, the IC50 in data set [3] (DD2, read-out: CNI-0294 IC50) was 3.52 ± 0.1 µM. Also, in data set [3] (DD2, read-out: IC50 ± standard deviation), the IC50 amounted to 3.67 ± 0.57 µM. Besides, the IC50 in data set [4] was 3.09 ± 0.3 µM. In addition, in data set [5], the IC50 stood at 1.79 ± 0.27 µM. For the same molecule, the IC50 in data set [6] came out at 2.29 ± 0.22 µM. In the data set on Plasmodium falciparum, the “anti-malarial activity in vitro” value was “considerable anti-malarial activity; also recorded: effective against various clones of P. falciparum”. Also, the IC50 in the data set with Plasmodium falciparum (Plasmodium falciparum, series of cloned parasites, read-out: median inhibitory concentration (IC50)) lay in the range of 1.79 to 4 µM. The “suppression / cure of P. berghei infection” value in the data set with Plasmodium berghei (50 mg/kg i.p. daily for 4 days) was “strongly suppress P. berghei infection in mice; also recorded: not completely cured”. The molecule also returned a reduction of parasitemia in the data set on Plasmodium berghei (50 mg/kg i.p. once daily for four days, P≤0.01) of 10 fold. In addition, the relative bioavailability in data set [7] is 6%. For the same molecule, the relative bioavailability in [7] (50 mg/kg) came out at 6%. In data set [7] (ip, 50 mg/kg), the “A (zero time intercept, distribution phase)” value is 14.00 and 16.07; the “B (zero time intercept, elimination phase)” value is 0.07 and 0.05; the Cltot is 62.70; the VD stood at 19.80. Besides, in data set [7] (ip, 50 mg/kg), the “duration of therapeutic plasma concentration (range of P. falciparum IC50)” value is listed as “approximately one”; the plasma maximal concentration lay within 18.76 to 18.93 µg/mL; the t1/2α is 0.62 and 0.40; the t1/2β is 4.62 and 3.65. In addition, in data set [7] (ip, 50 mg/kg), the tmax stood at 5; the α was 1.12 and 1.74; the β is on record as 0.19. In data set [7] (po, 50 mg/kg), the Bioavaliability is listed as 0.06 and the “time drug was detectable in plasma” value is recorded as “at least 6 hr”. Also, in “in vivo” (ip), the apparent clearance (CL/F) – broadly, clearance divided by bioavailability, as obtained after extravascular dosing – was 35.4 mL/min; the highest concentration (Cmax) (usually the highest concentration seen after dosing) was found to be 18800 ng/mL; the Vd/F (commonly the volume of distribution divided by bioavailability) turned out to be 14.1 L; the k el is 4.17e-05 s⁻¹. The concentration in the data set “in vivo” (po) peaked (Cmax) at 400 ng/mL.
For `Nc1nc2c(ncn2[C@@H]2O[C@H](COP(=O)(O)OP(=O)(O)OP(O)(O)=S)[C@@H](O)[C@H]2O)c(=O)[nH]1` [(γ-S)GTP], the “inhibition of nuclear localization” value in the data set with nuclear localization is “blocked”.
For “SV40 T-antigen NLS: the peptide having the sequence of the SV40 T-antigen NLS (PKKKRKV)”, the “block of HIV-1 importation into the nucleus” value in [8] is on record as “blocked the importation of HIV-1 into the nucleus”.
